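GI50: concentration for 50% inhibition of growth. Definition used: TGI = concentration required for complete inhibition of growth.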
Columns and labels:
Assay in all cases: NCI-60 cell line screen, 384-well format
786-0 renal = test system: 786-0 renal
A498 renal = test system: A498 renal
A549 NSCLC = test system: A549 NSCLC
ACHN renal = test system: ACHN renal
BT-549 breast = test system: BT-549 breast
CAKI-1 renal = test system: CAKI-1 renal
CCRF-CEM leukemia = test system: CCRF-CEM leukemia
COLO 205 colon = test system: COLO 205 colon
DU-145 prostate = test system: DU-145 prostate
HCC-2998 colon = test system: HCC-2998 colon
HCT-116 colon = test system: HCT-116 colon
HCT-15 colon = test system: HCT-15 colon
HL-60(TB) leukemia = test system: HL-60(TB) leukemia
HOP-62 NSCLC = test system: HOP-62 NSCLC
HOP-92 NSCLC = test system: HOP-92 NSCLC
HT29 colon = test system: HT29 colon
IGROV1 ovarian = test system: IGROV1 ovarian
K-562 leukemia = test system: K-562 leukemia
KM12 colon = test system: KM12 colon
LOX IMVI melanoma = test system: LOX IMVI melanoma
M14 melanoma = test system: M14 melanoma
MALME-3M melanoma = test system: MALME-3M melanoma
MCF7 breast = test system: MCF7 breast
MDA-MB-231 breast = test system: MDA-MB-231 breast
MDA-MB-435 melanoma = test system: MDA-MB-435 melanoma
MDA-MB-468 breast = test system: MDA-MB-468 breast
MOLT-4 leukemia = test system: MOLT-4 leukemia
NCI-H226 lung = test system: NCI-H226 lung
NCI-H23 lung = test system: NCI-H23 lung
NCI-H322M lung = test system: NCI-H322M lung
NCI-H460 NSCLC = test system: NCI-H460 NSCLC
NCI-H522 lung = test system: NCI-H522 lung
NCI/ADR-RES ovarian = test system: NCI/ADR-RES ovarian
OVCAR-3 ovarian = test system: OVCAR-3 ovarian
OVCAR-4 ovarian = test system: OVCAR-4 ovarian
OVCAR-5 ovarian = test system: OVCAR-5 ovarian
OVCAR-8 ovarian = test system: OVCAR-8 ovarian
PC-3 prostate = test system: PC-3 prostate
RPMI-8226 leukemia = test system: RPMI-8226 leukemia
RXF 393 renal = test system: RXF 393 renal
SF-268 CNS = test system: SF-268 CNS
SF-295 CNS = test system: SF-295 CNS
SF-539 CNS = test system: SF-539 CNS
SK-MEL-2 melanoma = test system: SK-MEL-2 melanoma
SK-MEL-28 melanoma = test system: SK-MEL-28 melanoma
SK-MEL-5 melanoma = test system: SK-MEL-5 melanoma
SK-OV-3 ovarian = test system: SK-OV-3 ovarian
SN12C renal = test system: SN12C renal
SNB-19 CNS = test system: SNB-19 CNS
SR leukemia = test system: SR leukemia
SW-620 colon = test system: SW-620 colon
T-47D breast = test system: T-47D breast
TK-10 renal = test system: TK-10 renal
U251 glioblastoma = test system: U251 glioblastoma
UACC-257 melanoma = test system: UACC-257 melanoma
UACC-62 melanoma = test system: UACC-62 melanoma
UO-31 renal = test system: UO-31 renal

## Nc1ncn([C@H]2C[C@H](OP(=O)(O)OC[C@H]3O[C@@H](n4cnc5c(=O)[nH]c(N)nc54)C[C@@H]3O)[C@@H](CO)O2)c(=O)n1
786-0 renal
  GI50: 3.34 µM
  TGI: 31.1 µM
A498 renal
  GI50: 37.7 µM
  TGI: > 100 µM
A549 NSCLC
  GI50: 10.8 µM
  TGI: > 100 µM
ACHN renal
  GI50: 2.33 µM
  TGI: 83.2 µM
BT-549 breast
  GI50: 6.95 µM
  TGI: 40.6 µM
CAKI-1 renal
  GI50: 7.79 µM
  TGI: > 100 µM
CCRF-CEM leukemia
  GI50: 0.0724 µM
  TGI: 1.88 µM
COLO 205 colon
  GI50: 68.9 µM
  TGI: > 100 µM
DU-145 prostate
  GI50: 33.3 µM
  TGI: > 100 µM
HCC-2998 colon
  GI50: 2.82 µM
  TGI: > 100 µM
HCT-116 colon
  GI50: 2.79 µM
  TGI: > 100 µM
HCT-15 colon
  GI50: > 100 µM
  TGI: > 100 µM
HL-60(TB) leukemia
  GI50: 1.16 µM
  TGI: 18.2 µM
HOP-62 NSCLC
  GI50: 1.83 µM
  TGI: 53.3 µM
HOP-92 NSCLC
  GI50: 54.5 µM
  TGI: > 100 µM
HT29 colon
  GI50: 46.5 µM
  TGI: > 100 µM
IGROV1 ovarian
  GI50: > 100 µM
  TGI: > 100 µM
K-562 leukemia
  GI50: 1.48 µM
  TGI: > 100 µM
KM12 colon
  GI50: > 100 µM
  TGI: > 100 µM
LOX IMVI melanoma
  GI50: 13.5 µM
  TGI: 37.4 µM
M14 melanoma
  GI50: 0.922 µM
  TGI: > 100 µM
MALME-3M melanoma
  GI50: 20.6 µM
  TGI: > 100 µM
MCF7 breast
  GI50: 14 µM
  TGI: > 100 µM
MDA-MB-231 breast
  GI50: 38.3 µM
  TGI: > 100 µM
MDA-MB-435 melanoma
  GI50: 43.6 µM
  TGI: > 100 µM
MDA-MB-468 breast
  GI50: 0.0431 µM
  TGI: 0.368 µM
MOLT-4 leukemia
  GI50: 0.0566 µM
  TGI: 0.373 µM
NCI-H226 lung
  GI50: 32.7 µM
  TGI: > 100 µM
NCI-H23 lung
  GI50: > 100 µM
  TGI: > 100 µM
NCI-H322M lung
  GI50: 28.8 µM
  TGI: > 100 µM
NCI-H460 NSCLC
  GI50: 0.763 µM
  TGI: > 100 µM
NCI-H522 lung
  GI50: 4 µM
  TGI: 71.3 µM
NCI/ADR-RES ovarian
  GI50: > 100 µM
  TGI: > 100 µM
OVCAR-3 ovarian
  GI50: > 100 µM
  TGI: > 100 µM
OVCAR-4 ovarian
  GI50: > 100 µM
  TGI: > 100 µM
OVCAR-5 ovarian
  GI50: 77.6 µM
  TGI: > 100 µM
OVCAR-8 ovarian
  GI50: 10.8 µM
  TGI: > 100 µM
PC-3 prostate
  GI50: 28.4 µM
  TGI: > 100 µM
RPMI-8226 leukemia
  GI50: 0.0714 µM
  TGI: 0.451 µM
RXF 393 renal
  GI50: 1.05 µM
  TGI: 6.21 µM
SF-268 CNS
  GI50: 12.4 µM
  TGI: 56.6 µM
SF-295 CNS
  GI50: > 100 µM
  TGI: > 100 µM
SF-539 CNS
  GI50: 20.8 µM
  TGI: > 100 µM
SK-MEL-2 melanoma
  GI50: > 100 µM
  TGI: > 100 µM
SK-MEL-28 melanoma
  GI50: 26.1 µM
  TGI: > 100 µM
SK-MEL-5 melanoma
  GI50: 0.437 µM
  TGI: 10.7 µM
SK-OV-3 ovarian
  GI50: > 100 µM
  TGI: > 100 µM
SN12C renal
  GI50: 5.84 µM
  TGI: 26.4 µM
SNB-19 CNS
  GI50: > 100 µM
  TGI: > 100 µM
SR leukemia
  GI50: 6.81 µM
  TGI: 25.5 µM
SW-620 colon
  GI50: 18.5 µM
  TGI: > 100 µM
T-47D breast
  GI50: 13 µM
  TGI: 47 µM
TK-10 renal
  GI50: 32.2 µM
  TGI: > 100 µM
U251 glioblastoma
  GI50: 11.2 µM
  TGI: > 100 µM
UACC-257 melanoma
  GI50: > 100 µM
  TGI: > 100 µM
UACC-62 melanoma
  GI50: 26.6 µM
  TGI: > 100 µM
UO-31 renal
  GI50: > 100 µM
  TGI: > 100 µM
